Data published in patent US20240307283A1, “COMPOSITIONS AND METHODS FOR DECREASING PIGMENTATION” (The General Hospital Corporation, priority 2021, published 2024).
Peptide text beside a SMILES is read from it. * marks the point of attachment. Cbz = O=C(OCc1ccccc1)*

Columns and labels:
[1] = tested on: mouse melan-A melanocytes; experiment: In vitro depigmentation of melan-A melanocytes; type: cell-based; details: 2 uM or 10 uM, DMSO-based carrier, 1-5 days (average 1.5 days), FIG. 12B
Experimental: Murine Melan-A (Bennett et al., 1987) cells were obtained from the Wellcome Trust Functional Genomics Cell Bank. Melan-A cells were grown in RPMI 1640 supplemented with 10% FBS or FetalPlex (Gemini Bio-Products, #100-602), 100,000 U/L penicillin, 100 mg/L streptomycin sulphate, 100× Glutamax, and 200 nM TPA.
(§1) The ability of 2 uM or 10 uM ASS, Usnic acid, 4-hexylresorcinol, candesartan, Nigericin, and Ginkgolic acid to depigment was evaluated in mouse B16 melanoma cells and melan-A melanocytes. A DMSO-based carrier solution was used, and the experiments carried out for 1-5 days, with an average of 1.5 days. 4-n-Butylresorcinol, N-Acetylcystein (NAC), and Phenylthiourea (PTU), were used as a positive control, and DMSO as a negative control.

[2] = tested on: human skin explants (Fitzpatrick skin type 2); experiment: Prevention of UVB-driven pigmentation in human skin explants; type: cell-based; details: UVB 150 mJ/cm^2
Experimental: (§2) Skin samples considered surgical waste were obtained de-identified from healthy donors (IRB #2013P000093) undergoing reconstructive surgery, according to institutional regulations. Full thickness human abdominal skin explants were cultured in petri dishes with a solid phase and liquid phase phenol red free DMEM medium containing 20% penicillin/streptomycin/glutamine, 5% fungizone (Gibco), and 10% fetal bovine serum. Compounds were applied strictly on top of the explants, making sure no drip occurred into the underlying media. For UV irradiation experiments, a UV lamp (UV Products) was used at 1000 mJ/cm^2 UVB.
The ability of a number of NNT activators to prevent UVB-driven pigmentation of skin was evaluated in human skin explants (Fitzpatrick skin type 2) with application of UVB 150 mJ/cm^2. […]

mouse B16 melanoma cells = experiment: In vitro depigmentation of B16 melanoma cells; type: cell-based; details: 2 uM or 10 uM, DMSO-based carrier, 1-5 days (average 1.5 days), FIG. 12A
Experimental: as §1

human skin explants = experiment: Depigmentation of human skin explants by NNT activators; type: cell-based; details: for ability to depigment skin: after 36 hours, FIGS. 13A-B; for ability to depigment skin / Dose needed to depigment within 36 h (skin type 2): DMSO-based carrier; for Dose needed to depigment within 36 h (skin type 2): single dose or lower end of the dose range
Experimental: as §2
The ability of ASS, Usnic acid, 4-hexylresorcinol, candesartan, Nigericin, elaidylphosphocholine, hexitidine, naproxol, and Ginkgolic acid to depigment skin was tested in human skin explants. A DMSO-based carrier solution was used. DMSO was used as a negative control. […]

NNT = experiment: Immunoblot of NNT after redox modulators; type: cell-based, human; details: UACC257, NAC 5 mM, MitoTEMPO 20 μM, H2O2 100 μM, daily for 72 hours
Experimental: Immunoblotting: Whole-cell protein lysates were prepared using RIPA lysis buffer (Sigma-Aldrich, #R0278) supplemented with Protease and Phosphatase Inhibitor (ThermoFisher Scientific, #P178445). Protein concentrations were quantified using the Pierce BCA protein assay (ThermoFisher Scientific, #23225). Immunoblotting was performed by standard techniques using 4-15% Criterion TGX Precast Midi Protein gels (Bio-Rad Laboratories, #5671084) and transferring to 0.2 μm nitrocellulose membranes (Bio-Rad Laboratories, #1620112). Membranes were blocked with 5% non-fat milk (Boston BioProducts, #P-1400) in PBS containing 0.1% […] and incubated with one of the following primary antibodies at the indicated dilution (antibody sources are in the Key Resources Table): 1:20 dilution of anti-MITF monoclonal antibody CS, 1:1,000 dilution of anti-Tyrosinase clone T311, 1:1,000 dilution of anti-Mitofusin-2 antibody [6A8], 1:500 dilution of TRP2/DCT antibody, 1:1,000 dilution of anti-NNT antibody [8B4BB10], 1:1,000 dilution of anti-IDH1 ([…]) antibody, 1:1,000 dilution of p53 antibody [PAb 240], 1:1,000 dilution of TYRP1 antibody [EPR21960], 1:1,000 dilution of mouse monoclonal antibody Pmel17 (E-7), or 1:1,000 dilution of LC3B (D11) rabbit monoclonal antibody. Incubation with the appropriate secondary antibody followed, either a 1:5,000 dilution of donkey anti-Rabbit IgG-HRP or a 1:3,000 dilution of Amersham ECL mouse IgG, HRP. To verify equal loading of samples, membranes were re-probed with a 1:20,000 dilution of monoclonal anti-β-actin-peroxidase (Sigma Aldrich, #A3854). Protein bands were visualized using Western Lightning Plus ECL (PerkinElmer, #NEL105001EA) and quantified using ImageJ software (NIH).

tyrosinase = experiment: Cycloheximide chase assay of tyrosinase protein stability; type: cell-based, human; details: then CHX
Experimental: Cycloheximide chase assay: 72 h after siRNA transfection (sicontrol or siNNT), UACC257 melanoma cells were treated with a protein synthesis inhibitor, cyclohexamide (CHX, Sigma Aldrich #C7698, 50 μg/ml), for the indicated times and then immediately subjected to immunoblotting for tyrosinase protein expression. The expression of tyrosinase was quantified using ImageJ software based on band intensities and normalized to the intensities of the corresponding β-actin bands. The normalized tyrosinase expression was then defined as relative tyrosinase expression by setting the mean values at t=0 in each experimental group to 1.0. […] The siRNA-transfected cells were cultured for an additional 48 h in the presence of these agents and then examined by the CHX chase assay as described above. pLJM-1-EGFP or pLJM1-NNT/FLAG was introduced into UACC257 cells using Lipofectamine 3000, 48 after transfection, the transfection medium was replaced with fresh medium containing DMSO or 10 μM MG132 (Sigma Aldrich #M8699) and pre-incubated for 6 h. Then. CHX was added to assess tyrosinase protein stability as described above.

UACC257 cells = experiment: siNNT-induced pigmentation with antioxidants, melanin content; type: cell-based, human; details: NAC 5 mM, MitoTEMPO 20 μM daily for 72 h; NADPH 0.1 M
Experimental: sIRNA transfection: A single treatment of 10 nmol/L of siRNA was delivered to a 60% confluent culture by transfection with Lipofectamine RNAiMAX (Life Technologies, #13778150) according to the manufacturer's recommendations. After 48-72 h of transfection, total RNA or protein was harvested. Melanin quantification: Equal numbers of cells were plated in 6-well plates. The cells were then harvested 72-96 hours post siRNA or NNT inhibitors compounds, as indicated in the legends, pelleted, washed in PBS and counted. 10^6 cells were used for measurement of protein concentration with the Pierce BCA protein assay (Thermo Fisher Scientific, #23225) and 10^6 cells were resuspended in 60 μl of 1 N NaOH solution and incubated at 60° C. for 2 h or until the melanin was completely dissolved. After cooling down to room temperature, samples were centrifuged at 500×g for 10 min and the supernatants were loaded onto a 96-well plate. The melanin content was determined by measuring the absorbance at 405 nm on an Envision plate reader, compared with a melanin standard (0 to 50 μg/ml; Sigma Aldrich, #M8631). Melanin content was expressed as micrograms per milligram of protein.

Row | SMILES | ability to depigment [1] | Dose needed to inhibit UVB-induced tanning (skin type 2) [2] | ability to depigment (mouse B16 melanoma cells) | ability to depigment skin (human skin explants) | Dose needed to depigment within 36 h (skin type 2) (human skin explants; human skin explants) | further results
1 | CCCCCCc1ccc(O)cc1O [4-hexylresorcinol] | depigmenting effects | 1000 µM | depigmenting effects | depigmenting effects | 5 µM | –
2 | CC(=O)Oc1ccccc1C(=O)O [ASS, Acetylsalicylic Acid] | depigmenting effects | 10 µM | depigmenting effects | depigmenting effects | ≥ 5 µM | –
3 | CCCCCC/C=C\CCCCCCCc1cccc(O)c1C(=O)O [Ginkgolic acid] | depigmenting effects | 100 µM | depigmenting effects | depigmenting effects | ~50 µM | lightening by Fontana Masson and H&E staining (human skin explants; FIG. 13C): displayed lightening effects; nuclear capping (human skin explants; FIG. 13C): Nuclear capping was present; Dose needed to depigment within 36 h (skin type 2), result in words (human skin explants; human skin explants): n.s.
4 | OO [H2O2, Hydrogen peroxide] | – | – | – | – | – | NNT protein levels (NNT): did not impact NNT protein levels
5 | CC(C)C[C@@H](C=O)NC(=O)[C@H](CC(C)C)NC(=O)[C@H](CC(C)C)NC(=O)OCc1ccccc1 [MG132, carbobenzoxy-L-leucyl-L-leucyl-L-leucinal] (Cbz-Leu-Leu-Leu-aldehyde) | – | – | – | – | – | tyrosinase protein stability in NNT-overexpressing cells (tyrosinase; UACC257, 10 μM for 6 h): prevented an NNT overexpression-induced decrease in Tyrosinase protein stability
6 | NC(=O)C1=CN([C@@H]2O[C@H](COP(=O)(O)OP(=O)(O)OC[C@H]3O[C@@H](n4cnc5c(N)ncnc54)[C@H](OP(=O)(O)O)[C@@H]3O)[C@@H](O)[C@H]2O)C=CC1 [NADPH, β-nicontinamide adenine dinucleotide 2′-phosphate] | – | – | – | – | – | siNNT-increased tyrosinase protein stability (tyrosinase; UACC257, 5 mM NAC, 0.1 mM NADPH, 20 μM MitoTEMPO for 48 h): prevented; siNNT-mediated increase in pigmentation (UACC257 cells): inhibited the siNNT-mediated increase in pigmentation
7 | CO[C@@H]1C[C@@H](C[C@H]2CC[C@H](C)[C@H]([C@@H](C)C(=O)O)O2)O[C@]2(O[C@](C)([C@H]3CC[C@@](C)([C@@H]4O[C@@H]([C@H]5O[C@@](O)(CO)[C@H](C)C[C@@H]5C)C[C@@H]4C)O3)C[C@H]2C)[C@@H]1C [Nigericin] | depigmenting effects | 10 to 100 µM | depigmenting effects | depigmenting effects | 5 µM | –
8 | CC(=O)c1c(O)c(C)c(O)c2c1OC1=CC(=O)C(C(C)=O)C(=O)C12C (centres unmarked) [Usnic acid, usnic acid] | – | 100 µM | – | – | ≥ 5 µM | –
9 | CCOc1nc2cccc(C(=O)O)c2n1Cc1ccc(-c2ccccc2-c2nnn[nH]2)cc1 [candesartan, 1-((2′-(1H-Tetrazol-5-yl)-[1,1′-biphenyl]-4-yl)methyl)-2-ethoxy-1H-benzo[d]imidazole-7-carboxylic acid] | depigmenting effects | 1000 to 10000 µM | depigmenting effects | depigmenting effects | ≥ 50 µM | –
10 | CCCCCCCC/C=C/CCCCCCCCOP(=O)([O-])OCC[N+](C)(C)C [elaidylphosphocholine, [(E)-octadec-9-eny] 2-(trimethylazaniumyl)ethyl phosphate] | – | – | – | depigmenting effects | – | –
